# Literature values, collected in US20020177547A1, “Pharmaceutical compositions for treating or preventing cancer” (priority 2001, published 2002).
# Experiments:
# [1] = tested on: peripheral blood lymphocytes (PBL) of melanoma patients; conditions: repeated in vitro stimulation of PBL
sequence,measurement,setting,value
ITDQVPFSV [peptide 2],recognition by TILs,hgp100 TILs,immunodominant
KTWGQYWQV [peptide 1],recognition by TILs,hgp100 TILs,immunodominant
VLYRYGSFSV (listed as Homo sapiens) [Peptide 3],induction of melanoma-reactive CTLs,[1],able to induce melanoma-reactive CTLs
